Data as given in patent US10294202B2, “Pyrrolidinones as herbicides” (FMC Corporation, priority 2013, dated 2019).

Tests used:
Experiment in all cases: Test D pre-/postemergence herbicide test
[1] = tested on: foxtail, green; format: in vivo, Setaria viridis; details: for Plant response rating: Foxtail, Green, scale 0 to 100; for Plant response rating, Foxtail, Green: scale 0 to 100 (0 no effect, 100 complete control)
Source text: (§1) Seeds of plant species selected from bluegrass (annual bluegrass, Poa annua), blackgrass (Alopecurus myosuroides), canarygrass (littleseed canarygrass, Phalaris minor), chickweed (common chickweed, Stellaria media), galium (catchweed bedstraw, Galium aparine), bromegrass, downy (downy bromegrass, Bromus tectorum), field poppy (Papaver rhoeas), field violet (Viola arvensis), foxtail, green (green foxtail, Setaria viridis), deadnettle (henbit deadnettle, Lamium amplexicaule), ryegrass, Italian (Italian ryegrass, Lolium multiflorum), kochia (Kochia scoparia), lambsquarters (Chenopodium album), oilseed rape (Brassica napus), pigweed (Amaranthus retroflexus), chamomile (scentless chamomile, Matricaria inodora), Russian thistle (Salsola kali), speedwell (bird's-eye speedwell, Veronica persica), barley, spring (spring barley, Hordeum vulgare), wheat, spring (spring wheat, Triticum aestivum), buckwheat, wild (wild buckwheat, Polygonum convolvulus), mustard, wild (wild mustard, Sinapis arvensis), oat, wild (wild oat, Avena fatua), radish, wild (wild radish, Raphanus raphanistrum), […]), barley, winter (winter barley, Hordeum vulgare), and wheat, winter (winter wheat, Triticum aestivum) were planted into a silt loam soil and treated preemergence with test chemicals formulated in a non-phytotoxic solvent mixture which included a surfactant. At the same time, these species were planted in pots containing Redi-Earth® planting medium (Scotts Company, 14111 Scottslawn Road, Marysville, Ohio 43041) comprising spaghnum peat moss, vermiculite, wetting agent and starter nutrients and treated with postemergence applications of the test chemicals formulated in the same manner. Plants ranged in height from 2 to 18 cm (1- to 4-leaf stage). Treated plants and controls were maintained in a controlled growth environment for 7 to 21 days after which time all species were compared to controls and visually evaluated. Plant response ratings, summarized in Table D, are based on a scale of 0 to 100 where 0 is no effect and 100 is complete control. A dash (-) response means no test result.

[2] = tested on: oilseed rape; format: in vivo, Brassica napus; details: for Plant response rating: Postemergence, Oilseed Rape, scale 0 to 100; for Plant response rating, Oilseed Rape: Preemergence, scale 0 to 100 (0 no effect, 100 complete control)
Source text: as §1

[3] = tested on: barley, spring; format: in vivo, Hordeum vulgare; details: for Plant response rating: Barley, Spring, scale 0 to 100; for Plant response rating, Barley, Spring: scale 0 to 100 (0 no effect, 100 complete control)
Source text: as §1

[4] = tested on: pigweed; format: in vivo, Amaranthus retroflexus; details: for Plant response rating: Postemergence, Pigweed, scale 0 to 100; for Plant response rating, Pigweed: Preemergence, scale 0 to 100 (0 no effect, 100 complete control)
Source text: as §1

[5] = tested on: deadnettle; format: in vivo, Lamium amplexicaule; details: for Plant response rating: Deadnettle, scale 0 to 100; for Plant response rating, Deadnettle: scale 0 to 100 (0 no effect, 100 complete control)
Source text: as §1

O=C1NCC(c2ccc(F)c(F)c2)C1C(=O)Nc1cccc(F)c1 (racemic) [Compound 12]
Plant response rating ([1]; Postemergence, 16 g ai/ha): 0
Plant response rating ([1]; Postemergence, 31 g ai/ha): 0
Plant response rating ([1]; Postemergence, 62 g ai/ha): 10
Plant response rating ([1]; Postemergence, 125 g ai/ha): 20
Plant response rating ([1]; Postemergence, 250 g ai/ha): 25
Plant response rating, Foxtail, Green ([1]; Preemergence, 31 g ai/ha): 0
Plant response rating, Foxtail, Green ([1]; Preemergence, 62 g ai/ha): 0
Plant response rating, Foxtail, Green ([1]; Preemergence, 16 g ai/ha): 0
Plant response rating ([1]; Preemergence, 125 g ai/ha): 0
Plant response rating ([1]; Preemergence, 250 g ai/ha): 0
Plant response rating ([2]; 16 g ai/ha): 10
Plant response rating ([2]; 31 g ai/ha): 10
Plant response rating ([2]; 62 g ai/ha): 10
Plant response rating ([2]; 125 g ai/ha): 20
Plant response rating ([2]; 250 g ai/ha): 25
Plant response rating, Oilseed Rape ([2]; 31 g ai/ha): 0
Plant response rating, Oilseed Rape ([2]; 62 g ai/ha): 10
Plant response rating, Oilseed Rape ([2]; 125 g ai/ha): 10
Plant response rating, Oilseed Rape ([2]; 250 g ai/ha): 20
Plant response rating, Oilseed Rape ([2]; 16 g ai/ha): 0
Plant response rating ([3]; Postemergence, 16 g ai/ha): 0
Plant response rating ([3]; Postemergence, 31 g ai/ha): 0
Plant response rating ([3]; Postemergence, 62 g ai/ha): 5
Plant response rating ([3]; Postemergence, 125 g ai/ha): 5
Plant response rating ([3]; Postemergence, 250 g ai/ha): 5
Plant response rating, Barley, Spring ([3]; Preemergence, 31 g ai/ha): 0
Plant response rating, Barley, Spring ([3]; Preemergence, 62 g ai/ha): 0
Plant response rating, Barley, Spring ([3]; Preemergence, 16 g ai/ha): 0
Plant response rating ([3]; Preemergence, 125 g ai/ha): 0
Plant response rating ([3]; Preemergence, 250 g ai/ha): 0
Plant response rating ([4]; 16 g ai/ha): 0
Plant response rating ([4]; 31 g ai/ha): 10
Plant response rating ([4]; 62 g ai/ha): 25
Plant response rating ([4]; 125 g ai/ha): 30
Plant response rating ([4]; 250 g ai/ha): 50
Plant response rating, Pigweed ([4]; 31 g ai/ha): 0
Plant response rating, Pigweed ([4]; 62 g ai/ha): 0
Plant response rating, Pigweed ([4]; 125 g ai/ha): 0
Plant response rating, Pigweed ([4]; 250 g ai/ha): 0
Plant response rating, Pigweed ([4]; 16 g ai/ha): 0
Plant response rating ([5]; Postemergence, 16 g ai/ha): 0
Plant response rating ([5]; Postemergence, 31 g ai/ha): 0
Plant response rating ([5]; Postemergence, 62 g ai/ha): 10
Plant response rating ([5]; Postemergence, 125 g ai/ha): 15
Plant response rating ([5]; Postemergence, 250 g ai/ha): 20
Plant response rating, Deadnettle ([5]; Preemergence, 31 g ai/ha): 0
Plant response rating, Deadnettle ([5]; Preemergence, 62 g ai/ha): 0
Plant response rating, Deadnettle ([5]; Preemergence, 16 g ai/ha): 0
Plant response rating ([5]; Preemergence, 125 g ai/ha): 0
Plant response rating ([5]; Preemergence, 250 g ai/ha): 50

O=C1NCC(c2cc(F)c(F)c(F)c2)C1C(=O)Nc1ccccc1C(F)(F)F (racemic) [Compound 33]
Plant response rating ([1]; Postemergence, 16 g ai/ha): 0
Plant response rating ([1]; Postemergence, 31 g ai/ha): 0
Plant response rating ([1]; Postemergence, 62 g ai/ha): 0
Plant response rating ([1]; Postemergence, 125 g ai/ha): 0
Plant response rating ([1]; Postemergence, 250 g ai/ha): 0
Plant response rating ([2]; 16 g ai/ha): 0
Plant response rating ([2]; 31 g ai/ha): 0
Plant response rating ([2]; 62 g ai/ha): 10
Plant response rating ([2]; 125 g ai/ha): 20
Plant response rating ([2]; 250 g ai/ha): 30
Plant response rating ([3]; Postemergence, 16 g ai/ha): 0
Plant response rating ([3]; Postemergence, 31 g ai/ha): 0
Plant response rating ([3]; Postemergence, 62 g ai/ha): 0
Plant response rating ([3]; Postemergence, 125 g ai/ha): 0
Plant response rating ([3]; Postemergence, 250 g ai/ha): 0
Plant response rating ([4]; 16 g ai/ha): 0
Plant response rating ([4]; 31 g ai/ha): 0
Plant response rating ([4]; 62 g ai/ha): 0
Plant response rating ([4]; 125 g ai/ha): 10
Plant response rating ([4]; 250 g ai/ha): 10
Plant response rating ([5]; Postemergence, 16 g ai/ha): 0
Plant response rating ([5]; Postemergence, 31 g ai/ha): 0
Plant response rating ([5]; Postemergence, 62 g ai/ha): 0
Plant response rating ([5]; Postemergence, 125 g ai/ha): 0
Plant response rating ([5]; Postemergence, 250 g ai/ha): 10

O=C1NCC(c2cccc(C(F)(F)F)c2)C1C(=O)Nc1cccc(F)c1F (centres unmarked) [Compound 241]
Plant response rating, Foxtail, Green ([1]; Preemergence, 31 g ai/ha): 35
Plant response rating, Foxtail, Green ([1]; Preemergence, 62 g ai/ha): 90
Plant response rating, Foxtail, Green ([1]; Preemergence, 125 g ai/ha): 90
Plant response rating ([1]; Preemergence, 250 g ai/ha): 90
Plant response rating, Oilseed Rape ([2]; 31 g ai/ha): 0
Plant response rating, Oilseed Rape ([2]; 62 g ai/ha): 0
Plant response rating, Oilseed Rape ([2]; 125 g ai/ha): 5
Plant response rating, Oilseed Rape ([2]; 250 g ai/ha): 10
Plant response rating, Barley, Spring ([3]; Preemergence, 31 g ai/ha): 0
Plant response rating, Barley, Spring ([3]; Preemergence, 62 g ai/ha): 10
Plant response rating, Barley, Spring ([3]; Preemergence, 125 g ai/ha): 20
Plant response rating ([3]; Preemergence, 250 g ai/ha): 35
Plant response rating, Pigweed ([4]; 31 g ai/ha): 15
Plant response rating, Pigweed ([4]; 62 g ai/ha): 15
Plant response rating, Pigweed ([4]; 125 g ai/ha): 85
Plant response rating, Pigweed ([4]; 250 g ai/ha): 80
Plant response rating, Deadnettle ([5]; Preemergence, 31 g ai/ha): 35
Plant response rating, Deadnettle ([5]; Preemergence, 62 g ai/ha): 30
Plant response rating, Deadnettle ([5]; Preemergence, 125 g ai/ha): 35
Plant response rating ([5]; Preemergence, 250 g ai/ha): 45

O=C1NCC(c2cccc(C(F)(F)F)c2)C1C(=O)Nc1ccc(F)cc1F (racemic) [Compound 207]
Plant response rating, Foxtail, Green ([1]; Preemergence, 31 g ai/ha): 15
Plant response rating, Foxtail, Green ([1]; Preemergence, 62 g ai/ha): 60
Plant response rating, Foxtail, Green ([1]; Preemergence, 125 g ai/ha): 75
Plant response rating ([1]; Preemergence, 250 g ai/ha): 90
Plant response rating, Oilseed Rape ([2]; 31 g ai/ha): 0
Plant response rating, Oilseed Rape ([2]; 62 g ai/ha): 0
Plant response rating, Oilseed Rape ([2]; 125 g ai/ha): 0
Plant response rating, Oilseed Rape ([2]; 250 g ai/ha): 0
Plant response rating, Barley, Spring ([3]; Preemergence, 31 g ai/ha): 0
Plant response rating, Barley, Spring ([3]; Preemergence, 62 g ai/ha): 5
Plant response rating, Barley, Spring ([3]; Preemergence, 125 g ai/ha): 20
Plant response rating ([3]; Preemergence, 250 g ai/ha): 25
Plant response rating, Pigweed ([4]; 31 g ai/ha): 0
Plant response rating, Pigweed ([4]; 62 g ai/ha): 0
Plant response rating, Pigweed ([4]; 125 g ai/ha): 0
Plant response rating, Pigweed ([4]; 250 g ai/ha): 5
Plant response rating, Deadnettle ([5]; Preemergence, 31 g ai/ha): 0
Plant response rating, Deadnettle ([5]; Preemergence, 62 g ai/ha): 0
Plant response rating, Deadnettle ([5]; Preemergence, 125 g ai/ha): 20
Plant response rating ([5]; Preemergence, 250 g ai/ha): 20

O=C1NCC(c2cc(F)c(F)c(F)c2)C1C(=O)Nc1ccccc1F (racemic) [Compound 34]
Plant response rating ([1]; Postemergence, 16 g ai/ha): 0
Plant response rating ([1]; Postemergence, 31 g ai/ha): 0
Plant response rating ([1]; Postemergence, 62 g ai/ha): 0
Plant response rating ([1]; Postemergence, 125 g ai/ha): 0
Plant response rating ([1]; Postemergence, 250 g ai/ha): 0
Plant response rating ([2]; 16 g ai/ha): 0
Plant response rating ([2]; 31 g ai/ha): 0
Plant response rating ([2]; 62 g ai/ha): 0
Plant response rating ([2]; 125 g ai/ha): 0
Plant response rating ([2]; 250 g ai/ha): 20
Plant response rating ([3]; Postemergence, 16 g ai/ha): 0
Plant response rating ([3]; Postemergence, 31 g ai/ha): 0
Plant response rating ([3]; Postemergence, 62 g ai/ha): 0
Plant response rating ([3]; Postemergence, 125 g ai/ha): 0
Plant response rating ([3]; Postemergence, 250 g ai/ha): 0
Plant response rating ([4]; 16 g ai/ha): 0
Plant response rating ([4]; 31 g ai/ha): 0
Plant response rating ([4]; 62 g ai/ha): 0
Plant response rating ([4]; 125 g ai/ha): 0
Plant response rating ([4]; 250 g ai/ha): 10
Plant response rating ([5]; Postemergence, 16 g ai/ha): 0
Plant response rating ([5]; Postemergence, 31 g ai/ha): 0
Plant response rating ([5]; Postemergence, 62 g ai/ha): 0
Plant response rating ([5]; Postemergence, 125 g ai/ha): 0
Plant response rating ([5]; Postemergence, 250 g ai/ha): 0
